This note sets out measurements from ChEMBL document CHEMBL5465560, “Selectivity Literature for EUbOPEN Chemogenomic Library” (2024).

For assay [1], the target named is Mitogen-activated protein kinase kinase kinase kinase 1 (Homo sapiens) (UniProt Q92918). Kind of assay: Selectivity interaction (Kinase panel (KiNativ target engagement assay in Jurkat cells)) EUB0001635a MAP4K1. The class given is cell-based. The note with it: Selectivity number of off-targets 0.0, Selectivity number of targets 233.0, Source Knowledge https://www.sciencedirect.com/science/article/pii/S2451945619300674?via%3Dihub, at 1 µM.

The target in assay [2] is Serine/threonine-protein kinase MRCK beta (Homo sapiens) (UniProt Q9Y5S2). Description: Selectivity interaction (Ambit KINOMEscan and KiNATiv profiling in Jurkat cells) EUB0000090b CDC42BPB. The note with it: at 1 µM. The class given is cell-based.
The target of assay [3] is T1, cGMP-dependent protein kinase 1 (Homo sapiens) (UniProt Q13976).
T1 sequence (whole entry): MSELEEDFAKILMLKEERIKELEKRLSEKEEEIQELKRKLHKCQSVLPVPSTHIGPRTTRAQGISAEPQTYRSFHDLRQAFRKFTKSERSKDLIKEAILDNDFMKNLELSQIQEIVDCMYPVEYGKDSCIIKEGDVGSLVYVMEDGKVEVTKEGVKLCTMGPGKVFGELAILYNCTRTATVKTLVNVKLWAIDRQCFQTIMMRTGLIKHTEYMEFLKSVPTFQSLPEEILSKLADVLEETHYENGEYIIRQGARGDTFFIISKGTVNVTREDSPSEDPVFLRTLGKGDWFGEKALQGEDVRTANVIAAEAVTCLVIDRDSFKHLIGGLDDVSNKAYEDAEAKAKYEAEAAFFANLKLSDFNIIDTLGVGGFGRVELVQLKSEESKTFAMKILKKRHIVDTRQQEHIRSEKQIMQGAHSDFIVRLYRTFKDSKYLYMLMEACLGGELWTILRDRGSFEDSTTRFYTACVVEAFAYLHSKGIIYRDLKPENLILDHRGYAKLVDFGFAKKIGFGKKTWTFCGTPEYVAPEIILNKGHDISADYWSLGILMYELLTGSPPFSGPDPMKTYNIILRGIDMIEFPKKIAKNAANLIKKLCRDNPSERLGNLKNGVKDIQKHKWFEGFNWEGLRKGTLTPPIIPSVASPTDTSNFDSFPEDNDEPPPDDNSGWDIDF
Conditions: at 10 µM.

Another assay concerns the target Histamine H1 receptor (Homo sapiens, UniProt P35367). Description: Selectivity interaction (Panel of kinases, GPCRs, ion channels and transporters (enzymatic assay)) EUB0000266bCl HRH1.
The target of assay [4] is Wee1-like protein kinase (Homo sapiens) (UniProt P30291). Kind of assay: Selectivity interaction (KinomeScan (DiscoverX)) EUB0001619a WEE1. The note with it: at 1 µM.
The target of assay [5] is Calcium/calmodulin-dependent protein kinase type 1D (Homo sapiens) (UniProt Q8IU85). Description: Selectivity interaction (Kinase panel (Invitrogen)) EUB0000639a CAMK1D. The note with it: at 200 nM.
Assay [6] has as its target T2, Serine/threonine-protein kinase DCLK1 (Homo sapiens) (UniProt O15075).
T2 sequence (whole entry): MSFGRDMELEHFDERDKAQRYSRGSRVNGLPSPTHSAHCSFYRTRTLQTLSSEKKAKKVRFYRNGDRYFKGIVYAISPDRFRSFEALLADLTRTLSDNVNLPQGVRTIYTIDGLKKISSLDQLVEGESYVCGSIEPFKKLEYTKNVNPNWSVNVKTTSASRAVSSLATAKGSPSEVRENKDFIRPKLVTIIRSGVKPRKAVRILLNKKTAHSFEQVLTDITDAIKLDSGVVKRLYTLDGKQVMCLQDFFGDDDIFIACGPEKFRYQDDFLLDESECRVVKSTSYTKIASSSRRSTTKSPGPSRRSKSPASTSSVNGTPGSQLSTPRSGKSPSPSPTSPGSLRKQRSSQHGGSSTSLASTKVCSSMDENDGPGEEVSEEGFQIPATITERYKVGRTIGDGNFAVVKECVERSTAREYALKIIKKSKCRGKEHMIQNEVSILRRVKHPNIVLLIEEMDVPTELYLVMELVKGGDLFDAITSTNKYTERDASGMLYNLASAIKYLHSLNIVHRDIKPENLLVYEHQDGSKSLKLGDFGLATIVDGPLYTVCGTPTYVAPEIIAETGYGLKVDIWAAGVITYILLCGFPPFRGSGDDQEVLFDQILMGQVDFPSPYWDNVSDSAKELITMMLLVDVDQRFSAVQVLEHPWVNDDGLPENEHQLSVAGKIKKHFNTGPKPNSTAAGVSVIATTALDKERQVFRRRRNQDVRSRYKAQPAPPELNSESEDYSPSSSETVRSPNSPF
The note with it: at 10 µM.

Assay [7] concerns the target Ephrin type-A receptor 2 (Homo sapiens) (UniProt P29317). Kind of assay: Selectivity interaction (KinomeScan (DiscoverX)) EUB0001049a EPHA2. Conditions: at 1 µM.
Assay [8] has as its target Serine/threonine-protein kinase mTOR (Homo sapiens, UniProt P42345). Kind of assay: Selectivity interaction (ProQinase) EUB0000171b MTOR.
Assay [9] deals with T3, Homeodomain-interacting protein kinase 4 (Homo sapiens) (UniProt Q8NE63).
T3 sequence (whole entry): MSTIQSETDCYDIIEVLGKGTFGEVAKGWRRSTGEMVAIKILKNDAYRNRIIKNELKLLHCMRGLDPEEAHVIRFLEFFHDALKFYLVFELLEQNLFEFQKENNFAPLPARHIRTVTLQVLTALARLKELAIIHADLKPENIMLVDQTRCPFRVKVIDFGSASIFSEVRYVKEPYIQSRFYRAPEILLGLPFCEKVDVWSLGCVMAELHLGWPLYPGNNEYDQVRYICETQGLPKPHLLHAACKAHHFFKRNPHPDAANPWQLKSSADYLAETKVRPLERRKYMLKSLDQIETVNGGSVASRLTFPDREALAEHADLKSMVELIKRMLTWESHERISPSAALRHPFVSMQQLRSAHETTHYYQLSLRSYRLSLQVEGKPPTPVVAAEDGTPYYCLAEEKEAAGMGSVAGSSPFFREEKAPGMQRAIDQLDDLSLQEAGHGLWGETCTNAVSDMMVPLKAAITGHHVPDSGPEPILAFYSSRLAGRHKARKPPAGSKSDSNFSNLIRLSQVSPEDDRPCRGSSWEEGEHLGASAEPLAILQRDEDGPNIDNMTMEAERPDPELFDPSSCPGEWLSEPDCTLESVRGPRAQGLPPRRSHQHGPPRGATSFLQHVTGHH
Description: Selectivity interaction (KinomeScan (DiscoverX)) EUB0000092b HIPK4. The note with it: at 10 µM.

Assay [10] has as its target Serine/threonine-protein kinase N2 (Homo sapiens, UniProt Q16513). Description: Selectivity interaction (KinomeScan (DiscoverX)) EUB0000092b PKN2. The note with it: at 10 µM.
For assay [11], the target named is Mitogen-activated protein kinase kinase kinase kinase 1 (Homo sapiens) (UniProt Q92918). Kind of assay: Selectivity interaction (KinomeScan (DiscoverX)) EUB0000045b MAP4K1.
Assay [12] deals with Dual specificity protein kinase CLK4 (Homo sapiens, UniProt Q9HAZ1). Kind of assay: Selectivity interaction (KinomeScan (DiscoverX)) EUB0000618a CLK4. Conditions: at 10 µM.

Each structure is given as a SMILES string. Some results are limits rather than exact numbers.

Sequence of Mitogen-activated protein kinase kinase kinase kinase 1 (Homo sapiens) (Q92918 whole entry, looked up): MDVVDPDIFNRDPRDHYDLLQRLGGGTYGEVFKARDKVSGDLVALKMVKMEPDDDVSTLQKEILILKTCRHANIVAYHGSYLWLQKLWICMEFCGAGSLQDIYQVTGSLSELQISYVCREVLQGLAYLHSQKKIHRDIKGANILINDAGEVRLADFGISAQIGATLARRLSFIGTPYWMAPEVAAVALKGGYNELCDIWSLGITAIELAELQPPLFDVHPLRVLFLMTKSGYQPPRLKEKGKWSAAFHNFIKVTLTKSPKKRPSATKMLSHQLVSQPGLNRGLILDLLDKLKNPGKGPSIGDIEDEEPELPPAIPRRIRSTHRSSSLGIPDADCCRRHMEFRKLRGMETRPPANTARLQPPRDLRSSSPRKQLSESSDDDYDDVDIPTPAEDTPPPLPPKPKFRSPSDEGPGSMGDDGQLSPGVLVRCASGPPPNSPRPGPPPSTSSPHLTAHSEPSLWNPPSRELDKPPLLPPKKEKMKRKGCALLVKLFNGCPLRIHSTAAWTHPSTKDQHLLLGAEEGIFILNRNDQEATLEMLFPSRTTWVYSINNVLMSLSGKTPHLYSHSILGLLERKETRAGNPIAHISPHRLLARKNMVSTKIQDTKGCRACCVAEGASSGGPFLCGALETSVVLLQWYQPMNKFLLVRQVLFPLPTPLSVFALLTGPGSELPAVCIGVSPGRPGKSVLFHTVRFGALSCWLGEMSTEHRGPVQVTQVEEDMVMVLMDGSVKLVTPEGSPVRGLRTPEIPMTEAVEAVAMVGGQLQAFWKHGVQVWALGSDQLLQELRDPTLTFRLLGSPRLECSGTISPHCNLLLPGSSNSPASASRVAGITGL
Sequence of Ephrin type-A receptor 2 (Homo sapiens) (P29317 whole entry): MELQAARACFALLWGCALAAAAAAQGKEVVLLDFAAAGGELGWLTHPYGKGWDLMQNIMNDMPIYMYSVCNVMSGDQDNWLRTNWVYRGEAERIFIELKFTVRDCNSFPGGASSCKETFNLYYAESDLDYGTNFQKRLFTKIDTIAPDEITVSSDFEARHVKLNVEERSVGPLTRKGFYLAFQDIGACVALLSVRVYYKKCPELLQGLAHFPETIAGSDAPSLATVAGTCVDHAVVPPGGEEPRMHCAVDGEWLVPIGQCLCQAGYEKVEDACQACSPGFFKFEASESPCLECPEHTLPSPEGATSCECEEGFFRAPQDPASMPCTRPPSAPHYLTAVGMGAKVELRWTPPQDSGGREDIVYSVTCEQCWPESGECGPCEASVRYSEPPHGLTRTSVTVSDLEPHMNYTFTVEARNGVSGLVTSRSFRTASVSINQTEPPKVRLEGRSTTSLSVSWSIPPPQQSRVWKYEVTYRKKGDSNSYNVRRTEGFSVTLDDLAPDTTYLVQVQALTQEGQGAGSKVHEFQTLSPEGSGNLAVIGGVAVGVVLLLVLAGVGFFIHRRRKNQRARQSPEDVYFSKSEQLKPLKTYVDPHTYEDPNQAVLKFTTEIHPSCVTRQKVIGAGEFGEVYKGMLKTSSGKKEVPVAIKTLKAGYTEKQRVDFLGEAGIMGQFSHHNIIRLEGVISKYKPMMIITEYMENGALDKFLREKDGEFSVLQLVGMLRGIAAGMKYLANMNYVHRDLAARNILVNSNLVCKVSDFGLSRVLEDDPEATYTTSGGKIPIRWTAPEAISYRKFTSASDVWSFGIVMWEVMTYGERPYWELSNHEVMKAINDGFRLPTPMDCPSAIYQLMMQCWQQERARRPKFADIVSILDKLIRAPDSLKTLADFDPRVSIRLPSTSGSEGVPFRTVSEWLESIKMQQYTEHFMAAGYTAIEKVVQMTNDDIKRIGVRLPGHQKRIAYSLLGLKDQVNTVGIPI
Sequence of Serine/threonine-protein kinase MRCK beta (Homo sapiens) (Q9Y5S2 whole entry): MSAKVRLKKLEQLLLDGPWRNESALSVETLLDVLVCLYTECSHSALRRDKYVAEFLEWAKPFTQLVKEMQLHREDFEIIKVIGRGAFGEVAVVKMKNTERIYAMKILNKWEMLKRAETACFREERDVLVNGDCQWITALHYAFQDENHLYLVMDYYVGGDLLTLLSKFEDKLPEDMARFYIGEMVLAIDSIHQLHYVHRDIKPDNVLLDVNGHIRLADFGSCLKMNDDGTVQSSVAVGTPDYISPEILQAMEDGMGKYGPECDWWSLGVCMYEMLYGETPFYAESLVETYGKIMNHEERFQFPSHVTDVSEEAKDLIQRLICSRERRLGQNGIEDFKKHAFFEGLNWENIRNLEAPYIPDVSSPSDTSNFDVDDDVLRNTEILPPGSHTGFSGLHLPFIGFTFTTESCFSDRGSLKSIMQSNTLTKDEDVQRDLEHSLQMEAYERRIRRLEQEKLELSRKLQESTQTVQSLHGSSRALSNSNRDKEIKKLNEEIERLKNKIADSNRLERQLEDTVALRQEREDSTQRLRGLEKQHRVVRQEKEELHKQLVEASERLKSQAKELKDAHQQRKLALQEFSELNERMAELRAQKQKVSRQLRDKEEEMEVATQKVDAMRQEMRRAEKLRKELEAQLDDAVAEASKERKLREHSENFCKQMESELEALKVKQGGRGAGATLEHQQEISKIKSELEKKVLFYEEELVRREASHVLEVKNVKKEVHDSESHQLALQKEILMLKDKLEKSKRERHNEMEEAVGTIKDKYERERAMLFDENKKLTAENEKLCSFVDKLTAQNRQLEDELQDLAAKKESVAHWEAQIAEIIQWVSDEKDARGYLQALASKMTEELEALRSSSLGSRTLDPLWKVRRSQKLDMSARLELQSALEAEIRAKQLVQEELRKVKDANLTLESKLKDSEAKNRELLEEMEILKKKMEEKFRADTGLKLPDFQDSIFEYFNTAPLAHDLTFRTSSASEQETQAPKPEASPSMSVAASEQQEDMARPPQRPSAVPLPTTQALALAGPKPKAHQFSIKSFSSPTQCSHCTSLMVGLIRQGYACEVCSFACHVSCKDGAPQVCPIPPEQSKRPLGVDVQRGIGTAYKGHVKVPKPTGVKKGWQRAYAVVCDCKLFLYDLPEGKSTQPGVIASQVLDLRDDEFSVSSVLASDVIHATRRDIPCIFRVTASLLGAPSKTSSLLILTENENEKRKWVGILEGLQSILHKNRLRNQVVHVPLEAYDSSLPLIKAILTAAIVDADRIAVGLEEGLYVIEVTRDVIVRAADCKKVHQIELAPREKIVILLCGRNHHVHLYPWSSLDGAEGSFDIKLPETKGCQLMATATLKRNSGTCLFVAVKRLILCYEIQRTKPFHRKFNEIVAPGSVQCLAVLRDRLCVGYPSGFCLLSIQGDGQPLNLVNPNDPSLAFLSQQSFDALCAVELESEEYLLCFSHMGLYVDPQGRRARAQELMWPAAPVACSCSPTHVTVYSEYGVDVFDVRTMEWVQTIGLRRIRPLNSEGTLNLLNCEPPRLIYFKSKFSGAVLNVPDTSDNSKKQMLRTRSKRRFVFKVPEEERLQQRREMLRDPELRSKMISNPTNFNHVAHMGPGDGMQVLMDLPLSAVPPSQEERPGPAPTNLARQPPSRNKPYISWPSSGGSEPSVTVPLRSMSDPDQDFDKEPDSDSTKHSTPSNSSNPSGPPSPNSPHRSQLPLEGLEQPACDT
Sequence of Wee1-like protein kinase (Homo sapiens) (P30291 whole entry, looked up): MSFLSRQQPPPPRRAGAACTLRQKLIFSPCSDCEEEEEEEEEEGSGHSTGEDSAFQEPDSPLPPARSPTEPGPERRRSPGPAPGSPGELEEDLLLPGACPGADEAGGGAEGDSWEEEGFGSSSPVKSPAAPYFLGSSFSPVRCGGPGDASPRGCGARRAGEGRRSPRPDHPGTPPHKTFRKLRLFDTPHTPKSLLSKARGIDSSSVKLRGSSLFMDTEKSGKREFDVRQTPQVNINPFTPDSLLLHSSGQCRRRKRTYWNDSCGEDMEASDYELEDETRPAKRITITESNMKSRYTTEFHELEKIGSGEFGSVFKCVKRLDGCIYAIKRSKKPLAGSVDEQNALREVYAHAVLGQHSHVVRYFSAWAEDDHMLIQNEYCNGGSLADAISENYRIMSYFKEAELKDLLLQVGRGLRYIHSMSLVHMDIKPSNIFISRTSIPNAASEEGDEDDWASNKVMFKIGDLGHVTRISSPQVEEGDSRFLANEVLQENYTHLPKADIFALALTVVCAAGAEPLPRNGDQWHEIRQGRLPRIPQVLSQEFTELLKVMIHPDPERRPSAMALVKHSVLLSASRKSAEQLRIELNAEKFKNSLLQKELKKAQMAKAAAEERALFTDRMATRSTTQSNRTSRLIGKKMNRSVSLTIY
Sequence of Histamine H1 receptor (P35367 whole entry): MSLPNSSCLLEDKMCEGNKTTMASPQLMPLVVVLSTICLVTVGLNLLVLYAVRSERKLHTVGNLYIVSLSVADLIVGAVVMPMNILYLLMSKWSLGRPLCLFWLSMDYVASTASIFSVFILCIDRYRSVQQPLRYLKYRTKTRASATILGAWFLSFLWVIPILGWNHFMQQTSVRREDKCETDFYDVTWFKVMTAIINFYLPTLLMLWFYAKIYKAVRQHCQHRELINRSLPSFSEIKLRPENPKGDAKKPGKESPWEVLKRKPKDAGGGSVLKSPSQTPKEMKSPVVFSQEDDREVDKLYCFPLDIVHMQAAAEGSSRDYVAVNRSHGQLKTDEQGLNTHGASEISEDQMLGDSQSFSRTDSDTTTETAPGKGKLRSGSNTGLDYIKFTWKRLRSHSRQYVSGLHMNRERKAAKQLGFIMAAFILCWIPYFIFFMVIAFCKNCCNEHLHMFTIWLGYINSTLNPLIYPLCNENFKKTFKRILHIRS
Sequence of Calcium/calmodulin-dependent protein kinase type 1D (Homo sapiens) (Q8IU85 whole entry, looked up): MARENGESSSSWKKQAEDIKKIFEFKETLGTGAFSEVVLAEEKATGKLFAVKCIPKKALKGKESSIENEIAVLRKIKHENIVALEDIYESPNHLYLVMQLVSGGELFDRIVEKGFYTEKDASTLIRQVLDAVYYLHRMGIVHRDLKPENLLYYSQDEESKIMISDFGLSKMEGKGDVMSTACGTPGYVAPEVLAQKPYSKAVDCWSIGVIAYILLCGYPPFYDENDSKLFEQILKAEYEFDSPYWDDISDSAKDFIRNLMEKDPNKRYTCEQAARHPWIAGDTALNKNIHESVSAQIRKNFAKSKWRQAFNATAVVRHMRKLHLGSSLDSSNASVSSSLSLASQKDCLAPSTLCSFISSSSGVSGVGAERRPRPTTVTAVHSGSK

On to `C=CC(=O)Nc1ccc(C(=O)Nc2[nH]nc3c2CN(C(=O)N[C@H](CN(C)C)c2ccccc2)C3(C)C)cc1`, for which the % of engagement in assay [1] was determined as 4.1%.

Regarding `CN(C)C/C=C/C(=O)Nc1ccc(C(=O)N2CCCC(Nc3ncc(Cl)c(-c4c[nH]c5ccccc45)n3)C2)cc1` (stereo not given), in assay [2], the % of control was determined as 96%.

As for `Cc1cc([C@@H](C)Nc2ccccc2C(=O)O)c2nc(N3CCOCC3)cc(=O)n2c1` [AZD-6482], the % of control in [3] was determined as 100%.

Compound `CCn1c(-c2nc3cc(C(=O)N4CCCC(N)C4)ccc3n2C)cc2ccccc21` (stereo not given) came in with a pXC50 at Histamine H1 receptor below 4.4 M.

In assay [4], `N#Cc1cccc(-c2c[nH]c3ncnc(N4CCOCC4)c23)c1` registered a % of control of 100%.

Take `CC[C@@H]1[C@H](F)C(=O)N[C@@H]1COc1nccc2cc(C(N)=O)c(OC)cc12` [ZIMLOVISERTIB]: in [5], the % of inhibition came to 2.36%.

For the compound `CCN(CC)CCCCNc1ncc2cc(-c3cc(OC)cc(OC)c3)c(NC(=O)NC(C)(C)C)nc2n1`, the % of control in assay [6] amounted to 100%.

Regarding `COc1cc(Nc2nc(C)cc(-c3cnn4nc(OC)ccc34)n2)cc(C(F)(F)F)c1`, in [7], the % of control amounted to 87%.

In the case of `C=CC(=O)Nc1cccc(C(=O)Nc2ccc(Nc3cc(-c4[nH]c(SC)nc4C)ccn3)cc2)c1`, the figures for the % of control in [8] (at 1 µM) and in assay [8] (at 5 µM) were 88% and 91%, respectively.

For `CCC(=O)N1CCN(c2ccc(-n3c(=O)ccc4cnc5ccc(-c6cnc7ccccc7c6)cc5c43)cc2C(F)(F)F)CC1`, the % of control in [9] amounted to 4.6%; in assay [10], 65%.

`C=CC(=O)Nc1cc(-n2c(=O)ccc3cnc4ccc(-c5ccc(NS(C)(=O)=O)cc5)cc4c32)ccc1C`: the % of control in assay [11] (at 1 µM) was found to be 100%; in assay [11] (at 10 µM), 94%.

With `O[C@H]1CC[C@H](Nc2ncc3nc(Nc4c(F)cc(F)cc4F)n([C@H]4CCOC4)c3n2)CC1`, the % of control in assay [12] amounted to 100%.
